Legend:
Assay type in all cases: in vivo
Digitaria ciliaris (Di) = test: Test Example 2: herbicidal effects by upland field soil treatment; conditions: 100 g of the active ingredient per 10 ares;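 also: grade of growth control; 5 = at least 90%; 4 = 70 to 90%; 3 = 50 to 70%; 2 = 30 to 50%; 1 = 10 to 30%; 0 = under 10%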
Excerpt: (§1) (Test on Herbicidal Effects by Upland Field Soil Treatment)

barnyardgrass (Ec) = test: as above; conditions: 100 g of the active ingredient per 10 ares;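 also: grade of growth control; 5 = at least 90%; 4 = 70 to 90%; 3 = 50 to 70%; 2 = 30 to 50%; 1 = 10 to 30%; 0 = under 10%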
Excerpt: as §1

[1] = system: common lambsquarters (Ch); test: as above; conditions: 100 g of the active ingredient per 10 ares
Excerpt: as §1

pale smartweed (Po) = test: as above; conditions: 100 g of the active ingredient per 10 ares;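 also: grade of growth control; 5 = at least 90%; 4 = 70 to 90%; 3 = 50 to 70%; 2 = 30 to 50%; 1 = 10 to 30%; 0 = under 10%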
Excerpt: as §1

rice flatsedge (Ci) = test: as above; conditions: 100 g of the active ingredient per 10 ares;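 also: grade of growth control; 5 = at least 90%; 4 = 70 to 90%; 3 = 50 to 70%; 2 = 30 to 50%; 1 = 10 to 30%; 0 = under 10%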
Excerpt: as §1

slender amaranth (Am) [2] = test: as above; conditions: 100 g of the active ingredient per 10 ares
Excerpt: as §1

China jute (Ab) = test: Test Example 6: crop plant selectivity by upland field soil treatment (soybean), herbicidal effects; parameters: scale not given here; conditions: 21st day after application
In short: (§2)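 Soybean and weeds sown in sand-filled pots and covered with soil, then treated by soil application. Plants grown in a greenhouse, with herbicidal effect and crop phytotoxicity scored on day 21 after application against a fixed rating scale.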

[3] = system: common lambsquarters (Ch); test: as above; parameters: scale not given here; conditions: 21st day after application
In short: as §2

green foxtail (Se) = test: as above; parameters: scale not given here; conditions: 21st day after application
In short: as §2

slender amaranth (Am) [4] = test: as above; parameters: scale not given here; conditions: 21st day after application
In short: as §2

[5] = evaluated on the 21st day after application
[6] = 21st day after the application, index 0-5 of Table 47

Row | Compound | Herbicidal effects Di (Digitaria ciliaris (Di); [5]) | Herbicidal effects Ec (barnyardgrass (Ec); [5]) | Herbicidal effects Ch [1, 5] | Herbicidal effects Po (pale smartweed (Po); [5]) | Herbicidal effects Ci (rice flatsedge (Ci); [5]) | Herbicidal effects Am (slender amaranth (Am) [2]; [5]) | Herbicidal effects Ab (China jute (Ab); dose 6.3 g ai/10a) | Herbicidal effects Ch ([3]; dose 6.3 g ai/10a) | Herbicidal effects Se (green foxtail (Se); dose 6.3 g ai/10a) | Herbicidal effects Am (slender amaranth (Am) [4]; dose 6.3 g ai/10a) | Herbicidal effects Ab (China jute (Ab); dose 1.6 g ai/10a) | Herbicidal effects Ch ([3]; dose 1.6 g ai/10a) | Herbicidal effects Se (green foxtail (Se); dose 1.6 g ai/10a) | Herbicidal effects Am (slender amaranth (Am) [4]; dose 1.6 g ai/10a) | Herbicidal effects Di (Digitaria ciliaris (Di); [6]) | Herbicidal effects Ec (barnyardgrass (Ec); [6]) | Herbicidal effects Ch [1, 6] | Herbicidal effects Po (pale smartweed (Po); [6]) | Herbicidal effects Ci (rice flatsedge (Ci); [6]) | Herbicidal effects Am (slender amaranth (Am) [2]; [6])
1 | CSCOc1cc(-c2ccc(C(F)(F)F)n(C)c2=O)c(F)cc1Cl [Compound 1-208] | 5 | 5 | 5 | 5 | 5 | 5 | 5 | 5 | 5 | 5 |  |  |  |  |  |  |  |  |  | 
2 | C=CCN1C(=O)COc2cc(F)c(-c3ccc(C(F)(F)F)n(C)c3=O)cc21 [Compound 2-7] | 5 | 5 | 5 | 5 | 5 | 5 | 5 | 5 | 5 | 5 | 5 | 5 | 5 | 5 |  |  |  |  |  | 
3 | C#CCN1C(=O)COc2cc(Cl)c(-c3ccc(C(F)(F)F)n(C)c3=O)cc21 [Compound 2-25] | 5 | 5 | 5 | 5 | 5 | 5 | 5 | 5 | 5 | 5 | 5 | 5 | 5 | 5 |  |  |  |  |  | 
4 | C=CCN1C(=O)COc2cc(Cl)c(-c3ccc(C(F)(F)F)n(C)c3=O)cc21 [Compound 2-26] | 5 | 5 | 5 | 5 | 5 | 5 | 5 | 5 | 5 | 5 |  |  |  |  |  |  |  |  |  | 
5 | Cc1cc2c(-c3ccc(C(F)(F)F)n(C)c3=O)c(F)cc(Cl)c2o1 [Compound 4-1] | 5 | 5 | 5 | 5 | 5 | 5 | 5 | 5 | 5 | 5 | 5 | 5 | 5 | 5 |  |  |  |  |  | 
6 | CCc1cc2c(-c3ccc(C(F)(F)F)n(C)c3=O)c(F)cc(Cl)c2o1 [Compound 4-2] | 5 | 5 | 5 | 5 | 5 | 5 |  |  |  |  | 5 | 5 | 5 | 5 |  |  |  |  |  | 
7 | CCCc1cc2c(-c3ccc(C(F)(F)F)n(C)c3=O)c(F)cc(Cl)c2o1 [Compound 4-3] | 5 | 5 | 5 | 5 | 5 | 5 | 5 | 5 | 5 | 5 |  |  |  |  |  |  |  |  |  | 
8 | CCc1cc2c(Cl)cc(F)c(-c3ccc(C(F)(F)F)n(C)c3=O)c2o1 [Compound 5-2] | 5 | 5 | 5 | 5 | 5 | 5 | 5 | 5 | 5 | 5 |  |  |  |  |  |  |  |  |  | 
9 | CON=Cc1cc(-c2ccc(C(F)(F)F)n(C)c2=O)c(F)cc1Cl [Compound No. 1-72, 5-(1-methyl-6-trifluoromethyl-2(1H)-pyridon-3-yl)-2-chloro-4-fluorobenzaldehydeoxime-O-methyl ether] |  |  |  |  |  |  | 5 | 5 | 5 | 5 | 5 | 5 | 5 | 5 | 5 | 5 | 5 | 5 | 5 | 5
10 | Cn1c(C(F)(F)F)ccc(-c2cc(C#N)c(Cl)cc2F)c1=O [Compound No. 1-119, 3-(4-chloro-5-cyano-2-fluorophenyl)-1-methyl-6-trifluoromethyl-2(1H)-pyridone] |  |  |  |  |  |  | 5 | 5 | 5 | 5 |  |  |  |  | 5 | 5 | 5 | 5 | 5 | 5
11 | CCCC(=O)c1cc(-c2ccc(C(F)(F)F)n(C)c2=O)c(F)cc1Cl [Compound No. 1-194, 3-[4-chloro-2-fluoro-5-(1-oxobutyl)phenyl]-1-methyl-6-trifluoromethyl-2(1H)-pyridone] | 5 | 5 | 5 | 5 | 5 | 5 | 5 | 5 | 5 | 5 |  |  |  |  |  |  |  |  |  | 
12 | C#CCN1C(=O)COc2cc(F)c(-c3ccc(C(F)(F)F)n(C)c3=O)cc21 [Compound No. 2-1, 3-[7-fluoro-2,3-dihydro-4-(2-propynyl)-1,4-benzoxazin-3-on-6-yl]-1-methyl-6-trifluoromethyl-2(1H)-pyridone] | 5 | 5 | 5 | 5 | 5 | 5 | 5 | 5 | 5 | 5 | 5 | 5 | 5 | 5 |  |  |  |  |  | 
13 | C#CCn1c(=O)sc2cc(F)c(-c3ccc(C(F)(F)F)n(C)c3=O)cc21 [Compound No. 3-1, 3-[6-fluoro-3-(2-propynyl)-benzothiazolin-2-on-5-yl]-1-methyl-6-trifluoromethyl-2(1H)-pyridone] | 5 | 5 | 5 | 5 | 5 | 5 | 5 | 5 | 5 | 5 |  |  |  |  |  |  |  |  |  | 
14 | COCc1cc2c(-c3ccc(C(F)(F)F)n(C)c3=O)c(F)cc(Cl)c2o1 [Compound No. 4-4, 3-(7-chloro-5-fluoro-2-methoxymethylbenzofuran-4-yl)-1-methyl-6-trifluoromethyl-2-(1H)-pyridone] | 5 | 5 | 5 | 5 | 5 | 5 | 5 | 5 | 5 | 5 |  |  |  |  |  |  |  |  |  | 
15 | Cn1c(C(F)(F)F)ccc(-c2c(F)cc(Cl)c3oc(CO)cc23)c1=O [Compound No. 4-5, 3-(7-chloro-5-fluoro-2-hydroxymethylbenzofuran-4-yl)-1-methyl-6-trifluoromethyl-2-(1H)-pyridone] | 5 | 5 | 5 | 5 | 5 | 5 | 5 | 5 | 5 | 5 |  |  |  |  |  |  |  |  |  | 
16 | Cn1c(C(F)(F)F)ccc(-c2c(F)cc(Cl)c3occc23)c1=O [Compound No. 4-28, 3-(7-chloro-5-fluorobenzofuran-4-yl)-1-methyl-6-trifluoromethyl-2-(1H)-pyridone] | 5 | 4 | 5 | 5 | 5 | 5 |  |  |  |  | 5 | 5 | 5 | 5 |  |  |  |  |  | 
17 | Cn1cc(-c2cc(Oc3ccccc3)c(Cl)cc2F)c(=O)cc1C(F)(F)F [Compound No. 6-19, 5-(4-chloro-2-fluoro-5-phenoxyphenyl)-1-methyl-2-trifluoromethyl-4(1H)-pyridone] | 5 | 5 | 5 | 5 | 5 | 5 | 5 | 5 | 5 | 5 | 3 | 3 | 5 | 5 |  |  |  |  |  | 

— US6472348B1, “Pyridone derivatives and herbicides” (Kumiai Chemical Industry Co., Ltd., priority 1996, dated 2002)
